{
  "source": "patent US20020127282A1",
  "about": "“Multivalent silver pharmaceuticals” (priority 1991, published 2002)",
  "key": {"[1]": {"system": "Staphylococcus epidermidis 12228", "conditions": "24 hours at 34-35° C., 10 PPM sodium persulfate", "protocol": "(§1) Both the prepared and commercial materials were submitted for bactericidal evaluation following “good laboratory practice” regulations as set forth in Federal regulations (FIFRA and ffdca/40 CFR 150, May 2, 1984). The silver materials were tested as to whether they could kill pathogenic microorganisms with the intent of utilizing them in pharmaceutical applications. […] Strains of gram positive bacteria were chosen for the evaluation. One family of pathogens that are known for their deleterious effects on humans are popularly called “staph” infections. These infections are commonly contracted in hospitals having lax infectious screening procedures. Accordingly, three staph strains were selected as follows for evaluation: Staphylococcus aureus 9027 and 27543, and Staphylococcus epidermidis 12228. The inoculum nutrient broth was prepared according to AOAC specifications so as to contain 0.6-1 million organisms per drop of inoculum, each drop being equal to 0.05 ml. The broth itself was trypticase soy broth BBL 11766 prepared according to label instructions. Accordingly, the broth was prestandardized for the microorganisms in question in order to assure that the number of organisms remained constant within the margins of statistical allowance during the test period. […] Other gram positive bacteria pathogens were similarly evaluated."}, "Micrococcus luteus 9341": {"system": "Micrococcus luteus 9341", "protocol": "as §1"}, "[2]": {"system": "Candida albicans strain 16464", "conditions": "Sabouraud dextrose broth", "protocol": "as §1"}, "[3]": {"system": "Streptococcus pyogenes 7958", "protocol": "as §1"}, "Bacillus subtilis 6633": {"system": "Bacillus subtilis 6633", "protocol": "as §1"}, "[4]": {"system": "Streptococcus faecalis strain 10541", "conditions": "trypticase soy nutrient broth", "protocol": "(§2) More stringent testing was then performed in which the cultures were actually placed in trypticase soy nutrient broth, which allowed the pathogens being tested to replicate without being detached from its own food supply."}, "E. coli [5]": {"system": "E. coli", "conditions": "trypticase soy nutrient broth", "protocol": "as §2"}, "[6]": {"system": "Pseudomonas aeruginosa 9027", "conditions": "concentration not given", "protocol": "as §2"}, "[7]": {"conditions": "crystal concentrate applied", "protocol": "(§3) Tests were conducted to see whether said tetroxide posed any harm to the human body. Accordingly, a 3% concentrate of the compound was prepared for a series of evaluations.\nThe fourth evaluation dealt with primary eye irritation. This also was in conformity with 40 CFR 160."}, "[8]": {"conditions": "albino rabbits, oxide concentrate", "protocol": "as §3\nThe third evaluation, entitled “Primary Dermal Irritation in Albino Rabbits”, conformed to 40 CFR 160. It consisted of exposing the rabbits for prolonged periods of time and observing edema, erythema, ulceration, necrosis and any other evidence of dermal reactions or tissue destruction."}, "Staphylococcus aureus": {"system": "Staphylococcus aureus", "conditions": "24 hours at 34-35° C., 10 PPM sodium persulfate", "experimental": "(§4) Once it could be determined that the devices inhibited a particular microorganism, the minimal concentration required of Ag4O4 was determined to inhibit the microorganism in nutrient broth. Strains of gram positive bacteria were chosen for the evaluation. […] Accordingly, three staph strains were selected as follows for evaluation: Staphylococcus aureus 9027 and 27543, and Staphylococcus epidermidis 12228. The inoculum nutrient broth was prepared according to AOAC specifications so as to contain 0.6-1 million organisms per drop of inoculum, each drop being equal to 0.05 ml. The broth itself was trypticase soy broth BBL 11766 prepared according to label instructions. Accordingly, the broth was prestandardized for the microorganisms in question in order to assure that the number of organisms remained constant within the margins of statistical allowance during the test period."}, "[9]": {"conditions": "rabbits, dermal application", "protocol": "as §3\nThe second evaluation was for acute dermal toxicity in rabbits. The protocol, 40 CFR 158.135, 81-2, was to determine the LD50 for dermal application."}, "Candida albercans": {"system": "Candida albercans", "conditions": "Sabouraud dextrose broth"}, "Chorella species": {"system": "Chorella species", "type": "cell-based", "conditions": "within 5 minutes; Chorella species incubated for 10 days in algae nutrient", "experimental": "(§5) Select compounds of said moieties were also evaluated against algae utilizing Chorella species incubated for 10 days in algae nutrient. […] It was evaluated at 0.5 and 1.0 PPM on gram positive and negative cultures in the presence of 10 PPM sodium persulfate."}, "[10]": {"system": "Saccharomycetpideae variety", "conditions": "Sabouraud dextrose broth", "description": "Silver tetroxide was further evaluated in analogous nutrient used for yeasts and molds, namely, Sabouraud dextrose broth."}, "[11]": {"system": "Enterobacter cloacac 13047", "conditions": "concentration not given"}, "[12]": {"system": "Streptococcus ogalactiae 27956", "experimental": "as §4"}, "Streptococcus faecalis": {"system": "Streptococcus faecalis", "conditions": "0.5 PPM; within 0.5 minutes; 10 PPM sodium persulfate; AOAC protocol", "experimental": "as §5"}, "E. coli [13]": {"system": "E. coli", "conditions": "0.5 PPM; within 0.5 minutes; 10 PPM sodium persulfate; AOAC protocol", "experimental": "as §5"}, "[14]": {"conditions": "rats", "protocol": "as §3\nThe first evaluation met the requirements of Code of Federal Regulations (40 CFR 160). It consisted of determining the single dose toxicity in rats or LD50."}},
  "note": "Read-outs that look alike come from different tables or passages of the source.",
  "data": [
    {"smiles": "[Ag+].[Ag+].[Ag+].[Ag+].[O-2].[O-2].[O-2].[O-2]", "note": "[Tetrasilver tetroxide]", "values": [
      {"measurement": "minimal concentration to inhibit the microorganism", "setting": "[1]", "value": 0.625, "unit": "PPM"},
      {"measurement": "minimal inhibiting concentration required for 100% kills", "setting": "Micrococcus luteus 9341", "value": 1.25, "unit": "PPM"},
      {"measurement": "concentration completely inhibiting growth", "setting": "[2]", "value": 2.5, "unit": "PPM"},
      {"measurement": "minimal inhibiting concentration required for 100% kills", "setting": "[3]", "value": 2.50, "unit": "PPM"},
      {"measurement": "minimal inhibiting concentration required for 100% kills", "setting": "Bacillus subtilis 6633", "value": 5.00, "unit": "PPM"},
      {"measurement": "concentration achieving 100% kills", "setting": "[4]", "value": 5.0, "unit": "PPM"},
      {"measurement": "concentration achieving 100% kills", "setting": "E. coli [5]; E. coli strain 10231", "value": 2.5, "unit": "PPM"},
      {"measurement": "concentration achieving 100% kills", "setting": "E. coli [5]; E. coli strain 25254", "value": 2.5, "unit": "PPM"},
      {"measurement": "kills", "setting": "[6]", "value": 100, "unit": "%"},
      {"measurement": "FDA category for eye effects", "setting": "[7]", "value": "category IV"},
      {"measurement": "eye irritation", "setting": "[7]", "value": "no eye irritation"},
      {"measurement": "FDA category as dermal agent", "setting": "[8]", "value": "category IV"},
      {"measurement": "dermal reactions (edema, erythema, ulceration, necrosis, tissue destruction)", "setting": "[8]; prolonged exposure", "value": "none"},
      {"measurement": "minimal concentration to inhibit the microorganism", "setting": "Staphylococcus aureus; Staphylococcus aureus 9027", "value": 2.5, "unit": "PPM"},
      {"measurement": "minimal concentration to inhibit the microorganism", "setting": "Staphylococcus aureus; Staphylococcus aureus 27543", "value": 5.0, "unit": "PPM"},
      {"measurement": "toxicity category (acute dermal)", "setting": "[9]", "value": "category III"},
      {"measurement": "dermal LD50", "setting": "[9]; all animals survived maximum dose", "value": "greater than 2000 mg./Kg."},
      {"measurement": "concentration at which totally killed", "setting": "Candida albercans", "value": 2.5, "unit": "PPM"},
      {"measurement": "concentration effecting 100% kills of algae", "setting": "Chorella species", "value": "about 1 PPM"},
      {"measurement": "concentration at which totally killed", "setting": "[10]", "value": 1.25, "unit": "PPM"},
      {"measurement": "kills", "setting": "[11]", "value": 100, "unit": "%"},
      {"measurement": "minimal inhibiting concentration required for 100% kills", "setting": "[12]", "value": 1.25, "unit": "PPM"},
      {"measurement": "kill of colonies of Streptococcus faecalis", "setting": "Streptococcus faecalis", "value": 100, "unit": "%"},
      {"measurement": "kill of colonies of E. coli", "setting": "E. coli [13]", "value": 100, "unit": "%"},
      {"measurement": "FDA toxicity category", "setting": "[14]; single dose toxicity", "value": "category IV"},
      {"measurement": "LD50", "setting": "[14]; single dose, 3% concentrate, all animals survived", "value": "greater than 5000 mg./Kg."}
    ]}
  ]
}
